Assay results taken from the METLIN SMRT retention time set (Domingo-Almenara et al. 2019).

Experiment: gradient 5% acetonitrile 3 min, to 50% in 2 min, to 85% in 15 min, held 3 min, 100 µL/min
Settings: column: Zorbax Extend-C18 2.1 x 50 mm; eluents: water / acetonitrile, 0.1% formic acid
Procedure, shortened: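 In both positive and negative ionization mode, a quadrupole time-of-flight mass spectrometer coupled to HPLC analyzed pure standards run in mixtures of ~100 molecules. The Zorbax Extend-C18 column (2.1 × 50 mm, 1.8 μm) was operated at 100 μL/min with water and acetonitrile, each containing 0.1% formic acid. The dead volume was 40 μL and the dwell volume 900 μL. Retention time came from adduct peaks that were computationally picked and individually inspected by hand.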

Cc1ccc(-c2n[nH]c(CCNC(=O)c3ccc(S(=O)(=O)N4CCOCC4)cc3)n2)cc1
RP-LC retention time: 704 s

CCCNC(=O)c1nc(N2CCSCC2)c2cnn(C)c2n1
RP-LC retention time: 719 s

O=C(Nc1cccc2nsnc12)C1CCN(c2ccc(-c3cccs3)nn2)CC1
RP-LC retention time: 668 s

CC(C)CNC(=O)c1nc(-c2ccnc(N3CCC(C)CC3)c2)no1
RP-LC retention time: 814 s

COc1ccc(N2CCN(c3ncc(S(=O)(=O)c4ccc(C)c(C)c4)c(N)n3)CC2)cc1
RP-LC retention time: 966 s

CC(Oc1ccccc1)C(=O)N1CCN(c2nc(CN3CCOCC3)cs2)CC1 (configuration not stated)
RP-LC retention time: 621 s

Cc1cc(=O)n(CC(=O)Nc2ccc(N(C)C)cc2)c(-c2ccccc2)n1
RP-LC retention time: 639 s

Cc1cccc(C)c1NS(=O)(=O)c1cc2c3c(c1)CCC(=O)N3CCC2
RP-LC retention time: 848 s

CN(C)S(=O)(=O)c1ccc(NC(=O)N2CCCC(C(=O)Nc3ccc(F)cc3)C2)s1 (configuration not stated)
RP-LC retention time: 830 s

CCn1cc(S(=O)(=O)N2CCC3(CC2)CC(OCc2ccccc2)CCO3)cn1 (configuration not stated)
RP-LC retention time: 897 s

Cc1noc(C)c1CN1CCC(NC(=O)Cc2ccc(F)cc2)CC1
RP-LC retention time: 582 s

CS(=O)(=O)N1CCCc2cc(C(=O)N3CCCCCC3)ccc21
RP-LC retention time: 800 s

Cc1nc(-c2ccc3c(c2)n(CC(=O)NC2CCCc4ccccc42)c(=O)n3C(C)C)no1 (configuration not stated)
RP-LC retention time: 912 s

CCc1ccc(NC(=O)Cn2nc(N3CCCC(C)C3)c3ccccc3c2=O)cc1 (configuration not stated)
RP-LC retention time: 1160 s

Cc1ccc(OCC(=O)Nc2nnc(C3CC(=O)N(c4ccc(F)cc4)C3)o2)cc1 (configuration not stated)
RP-LC retention time: 792 s

O=C(Nc1c(-c2ccccc2)nc2ccccn12)c1ccccc1F
RP-LC retention time: 638 s

Cc1ccc(C)c(NC(=O)C2CCN(S(=O)(=O)c3ccc4c(c3)sc(=O)n4C(C)C)CC2)c1
RP-LC retention time: 1070 s

O=C(Cc1ccc(Cl)s1)Nc1nnc(-c2cc3ccccc3o2)o1
RP-LC retention time: 843 s

NC(=O)C1CCN(C2CC(=O)N(c3cccc(F)c3)C2=O)CC1 (configuration not stated)
RP-LC retention time: 582 s

CCc1nnc(-c2ccc3ccn(CC(=O)NCc4cccs4)c3c2)o1
RP-LC retention time: 790 s

Cc1cc(C)cc(N2CCC(NC(=O)c3ccsc3)C2=O)c1 (configuration not stated)
RP-LC retention time: 815 s

COc1ccc(NC(=O)Nc2c(-c3ccc(F)cc3)nc3ccccn23)cc1OC
RP-LC retention time: 629 s

O=C1c2cccc3cccc(c23)C(=O)N1c1cccnc1
RP-LC retention time: 631 s

CN(C)c1ccc(CNC(=O)C2CCN(c3cc(N4CCCCC4)ncn3)CC2)cc1
RP-LC retention time: 559 s

CCCN1C(=O)C(CC(=O)N(C)C)Sc2ncccc21 (configuration not stated)
RP-LC retention time: 655 s

CC(C)c1ccc(S(=O)(=O)N2CCCC2c2nc(-c3cccc(Cl)c3)no2)cc1 (configuration not stated)
RP-LC retention time: 1350 s

CCCNC(=O)C1CCCN(c2nc3ncn(CC(=O)Nc4ccc(F)c(F)c4)c(=O)c3s2)C1 (configuration not stated)
RP-LC retention time: 708 s

Cc1cccc(NC(=O)C2CCN(S(=O)(=O)c3ccc4c(c3)sc(=O)n4C)CC2)c1
RP-LC retention time: 910 s

CCOC(=O)c1c(NC(=O)CN2CCN(CC)CC2)sc(C)c1C
RP-LC retention time: 596 s

O=C(Nc1ccccc1F)C(=O)c1ccc[nH]1
RP-LC retention time: 858 s

Cc1ccc(C)c(NS(=O)(=O)c2cc(-c3cc(C(F)(F)F)on3)sc2C)c1
RP-LC retention time: 1320 s

CC(=O)N1CCc2[nH]c3ccc(C(=O)NCc4ccc(N5CCN(C)CC5)cc4)cc3c2C1
RP-LC retention time: 573 s

O=C(c1ccc(F)c(F)c1)N1CCCC(c2ccnc(-c3cccc(F)c3)n2)C1 (configuration not stated)
RP-LC retention time: 1120 s

COC(=O)c1ccc(Cl)cc1NC(=O)N1CCc2nc[nH]c2C1
RP-LC retention time: 644 s

CCOC(=O)c1noc2ncnc(N3CCN(c4ccccc4OC)CC3)c12
RP-LC retention time: 970 s

O=C1CCCCC(C(=O)N2CCOCC2)N1 (configuration not stated)
RP-LC retention time: 575 s

CCN1C(=O)CCc2cc(NC(=O)c3ccsc3)ccc21
RP-LC retention time: 715 s

O=C(c1cc(Br)ccc1Cl)N1CCN(c2ccc(-n3ccnc3)nn2)CC1
RP-LC retention time: 575 s

O=c1c2ccccc2n(Cc2nc(-c3cccc(Br)c3)no2)c(=O)n1CC1CCCO1 (configuration not stated)
RP-LC retention time: 1150 s

O=C(NC1CCCC1)C1CCCN(S(=O)(=O)Cc2ccccc2Cl)C1 (configuration not stated)
RP-LC retention time: 915 s

O=c1ccc(N2CCCN(S(=O)(=O)c3cccc(Cl)c3)CC2)nn1-c1ccccc1
RP-LC retention time: 868 s

CCN1C(=O)c2cc(S(=O)(=O)Nc3ccc(F)cc3C)ccc2Oc2cccnc21
RP-LC retention time: 1010 s

O=S(=O)(c1cccc(F)c1)N1CCC(n2c(-c3ccoc3)nc3cccnc32)C1 (configuration not stated)
RP-LC retention time: 872 s

COCCn1c(CC2CCN(C(=O)c3ccc(C)s3)C2)nc2cccnc21 (configuration not stated)
RP-LC retention time: 604 s

CCOC(=O)c1c(S(=O)(=O)N2CCC(C(=O)NC3CCCC3)CC2)c(C)n(C)c1C
RP-LC retention time: 766 s

COc1ccc(NC(=O)Cn2nc3c(Oc4cc(C)cc(C)c4)nccn3c2=O)cc1
RP-LC retention time: 859 s

CCc1nc2cc(N3CCCC(C(=O)NC4CC4)C3)cnc2nc1CC (configuration not stated)
RP-LC retention time: 696 s

COc1ccc(S(=O)(=O)N2CCC(c3noc(-c4ccccc4)n3)CC2)cc1Cl
RP-LC retention time: 1140 s

Cc1cc(C)cc(NC(=O)N2CCC(c3nc(C(=O)N(C)C)c(C)o3)CC2)c1
RP-LC retention time: 730 s

COc1ccc(-n2c(=O)c(C(=O)Nc3ccc(F)c(F)c3)c(O)c3cccnc32)cc1
RP-LC retention time: 983 s

Cc1nc(Nc2ncc3c(n2)CCCC3=O)nc2c(C)cccc12
RP-LC retention time: 620 s

Cc1ccc(-n2ccnc(NC(=O)Nc3ccc(F)c(Cl)c3)c2=O)cc1C
RP-LC retention time: 1160 s

COc1ccc2c(CCN)c[nH]c2c1
RP-LC retention time: 565 s

Cc1ccc(NC(=O)CN(C)S(=O)(=O)c2cc(C(=O)N3CCC(C)CC3)n(C)c2)cc1Cl
RP-LC retention time: 998 s

O=C1C2N=NN(Cc3nc(-c4ccc(Cl)cc4)no3)C2C(=O)N1c1ccc(F)cc1 (configuration not stated)
RP-LC retention time: 1030 s

Cc1ccc2nc(-c3cccc(S(=O)(=O)N4CCCC4)c3)cn2c1
RP-LC retention time: 657 s

Cc1ccc(NC(=O)CN2C(=O)CCc3cc(S(=O)(=O)N4CCCCC4C)ccc32)cc1C (configuration not stated)
RP-LC retention time: 720 s

Cc1ccc(C)c(NC(=O)C2CCCN(c3nc4c(s3)c(C)nn4-c3ccccc3)C2)c1 (configuration not stated)
RP-LC retention time: 1220 s

Cc1cc2[nH]c(C(=O)Nc3cc(F)c(F)cc3F)c(CN3CCCC3)c2s1
RP-LC retention time: 864 s

CCOC(=O)c1ccc(N2C=C(C#N)S(=O)(=O)c3ccc(F)cc32)cc1
RP-LC retention time: 972 s

O=C(NCc1ccco1)c1ccc2cnn(Cc3cccc(Cl)c3)c2c1
RP-LC retention time: 947 s

Cn1c(=O)n(CC(=O)N2CCCC2)c(=O)c2cnc(-c3ccc(Cl)cc3)nc21
RP-LC retention time: 924 s

c1ccc(CCc2nc(-c3ccc4c(c3)nnn4CCN3CCOCC3)no2)cc1
RP-LC retention time: 687 s

CC(C)c1cc(C(F)(F)F)nc(NNc2nc(C(C)C)cc(C(F)(F)F)n2)n1
RP-LC retention time: 924 s

Cc1csc(NC(=O)CSc2ccc(-c3cccs3)nn2)n1
RP-LC retention time: 750 s

COc1ccc(OCC(=O)Nc2ccc3c(c2)N(C(=O)C(C)C)CCC3)cc1
RP-LC retention time: 897 s

CS(=O)(=O)Nc1cccc(NC(=O)C2CCN(CC(=O)Nc3ccc(F)cc3)CC2)c1
RP-LC retention time: 564 s

COc1ccccc1NS(=O)(=O)c1c(C)nn(-c2ccc(-c3ccc(C)cc3)nn2)c1C
RP-LC retention time: 1150 s

CCCNC(=O)C1CCCN(c2nc3ncn(CC(=O)Nc4ccc(C(C)C)cc4)c(=O)c3s2)C1 (configuration not stated)
RP-LC retention time: 801 s

O=C(NC1CC1)c1ccc(OCC2CCCN(C(=O)C3CC3)C2)cc1 (configuration not stated)
RP-LC retention time: 718 s

CCOC(=O)c1ccc(NC(=O)Cn2nc3c(N4CCSCC4)nccn3c2=O)cc1
RP-LC retention time: 828 s

CCOC(=O)N1CCN(c2nc(F)c(F)c(S(=O)(=O)CCNc3ccccc3)c2F)CC1
RP-LC retention time: 1010 s

Cc1ccc(N2CC(c3noc(-c4ccc(-c5ccccc5)cc4)n3)CC2=O)cc1 (configuration not stated)
RP-LC retention time: 1180 s

Cc1ccc(-c2noc(Cn3c(=O)n(-c4ccc(Cl)cc4)c(=O)c4sccc43)n2)cc1C
RP-LC retention time: 1150 s

CC(C)CC(=O)Nc1cnc(-c2ccccc2)nc1
RP-LC retention time: 906 s

COc1cccc(OC)c1C(=O)N1CCCC1c1cc(C)on1 (configuration not stated)
RP-LC retention time: 679 s

O=C(c1cc(F)ccc1Cl)N1CCc2nc(-c3ccc(Cl)cc3)ncc2C1
RP-LC retention time: 1130 s

COc1cccc(C(O)CN2CCN(c3cccc(C)c3C)CC2)c1 (configuration not stated)
RP-LC retention time: 614 s

Cc1oc(-c2ccc(NC(=O)Cc3ccc(F)cc3)cc2)nc1Cn1cccn1
RP-LC retention time: 866 s

CCC1CCCCN1CCCNC(=O)c1cn(CCOC)c(=O)c2c1c1ccccc1n2C (configuration not stated)
RP-LC retention time: 631 s

COc1cccc(-c2ccc(=O)n(CCc3nc(-c4cccc(Br)c4)no3)n2)c1
RP-LC retention time: 1080 s

O=C(c1cccs1)N1N=C(c2cccs2)CC1c1cc([N+](=O)[O-])ccc1O (configuration not stated)
RP-LC retention time: 876 s

CCN1c2ccccc2C(=O)NC12CCN(C(=O)Cc1ccc(C)cc1)CC2
RP-LC retention time: 823 s

COc1ccccc1-c1noc(CCn2nc(-c3ccc4c(c3)OCO4)ccc2=O)n1
RP-LC retention time: 802 s

COc1ccc(NC(=O)c2cc3ccccc3c(=O)o2)c([N+](=O)[O-])c1
RP-LC retention time: 920 s

CC1CCCCN1CCCNC(=O)CCCn1c(=O)c2cccn2c2ccc(Br)cc21 (configuration not stated)
RP-LC retention time: 674 s

CC(=O)N1c2ccc(S(=O)(=O)N3CCCCC3)cc2CC1C(=O)NCCCN1CCCCC1 (configuration not stated)
RP-LC retention time: 577 s
